Test results published in patent US8722683B2, “Benzodioxole piperazine compounds” (Hoffmann LA-Roche Inc., priority 2011, dated 2014).

Experiments:
D3 receptor = D3 receptor (Homo sapiens (Human), UniProt P35462); assay: Radioligand binding ([3H]-spiperone) to cloned D3 receptor expressed in HEK-293 EBNA cells; settings: HEK293 EBNA membranes, 0.5 nM [3H]-spiperone
Procedure: (§1) HEK293 EBNA cells were transiently transfected with expression plasmids encoding for the human D2 or D3 or for the human 5-HT2A receptor, respectively. The cells were harvested 48 h post-transfection, washed three times with cold PBS and stored at −80° C. prior to use. The pellet was suspended in cold 50 mM Tris-HCl buffer containing 10 mM EDTA (pH 7.4) and was homogenized with a Polytron (Kinematica AG, Basel, Switzerland) for 20-30 sec at 12.000 rpm. After centrifugation at 48.000×g for 30 min at 4° C., the pellet was resuspended in cold 10 mM Tris-HCl buffer containing 0.1 mM EDTA (pH 7.4), homogenized, and centrifuged as above. This pellet was further resuspended in a smaller volume of ice cold 10 mM Tris-HCl buffer containing 0.1 mM EDTA (pH 7.4) and homogenized with a Polytron for 20-30 sec at 12.000 rpm. The protein content of this homogenate was determined with the Bio-Rad (Bradford) Protein Assay (Biorad Laboratories GmbH, München, Germany) according to the instructions of the manufacturer using gamma globulin as the standard. This homogenate was stored at −80° C. in aliquots and thawed immediately prior to use.
(§2) Radioligand Binding Assay
(§3) Aliquots of membrane preparations were thawed at RT, resupended in assay buffer (D2, D3: 50 mM Tris-HCl, 120 mM NaCl, 5 mM MgCl2, 1 mM EDTA, 5 mM KCl, 1.5 mM CaCl2, pH=7.4; 5-HT2A: 50 mM Tris-HCl, 10 mM MgCl2, 1 mM EGTA, pH=7.4), homogenized with a Polytron for 20-30 sec at 12.000 rpm and adjusted to a final concentration of approximately 7.5 μg protein/well (D2, D3) and 15 μg protein/well (5-HT2A), respectively.
The binding affinity (Ki) of the compounds was determined using radioligand binding. […] At the end of the incubation, the reaction mixtures were filtered on to unifilter 96-well white microplates with bonded GF/C filters (Packard BioScience, Zürich, Switzerland; preincubated for 1 h in 0.1% polyethylenimine (PEI) in assay buffer) with a Filtermate 196 harvester (Packard BioScience) and washed 3 times with cold assay buffer. The nonspecific binding was determined with equally composed reaction mixtures in the presence of 10 μM unlabelled spiperone. Per well 45 μl of Microscint 40 (Perkin Elmer, Schwerzenbach, Switzerland) was added, plates for sealed, shaken for 20 min and counted for 3 min on a Topcount Microplate Scintillation Counter (Canberra Packard SA, Zürich, Switzerland) with quenching correction.
(§4) The CPM value for each duplicate of a concentration of competing compound was averaged (y1), then the % specific binding was calculated according to the equation (((y1−non-specific)/(total binding−non-specific))×100). Graphs were plotted with the % specific binding using XLfit, a curve fitting program that iteratively plots the data using Levenberg-Marquardt algorithm. The single site competition analysis equation used was y=A+((B−A)/(1+((x/C)D))), where y is the % specific binding, A is the minimum y, B is the maximum y, C is the IC50, x is the log 10 of the concentration of the competing compound and D is the slope of the curve (the Hill Coefficient). […] The affinity constant (Ki) was calculated using the Cheng-Prusoff equation Ki=(IC50/1+([L]/Kd), where [L] is the concentration of radioligand and Kd is the dissociation constant of the radioligand at the receptor as determined by the saturation isotherm.

D2 receptor = D2 receptor (Homo sapiens (Human), UniProt P14416); assay: Radioligand binding ([3H]-spiperone) to cloned D2 receptor expressed in HEK-293 EBNA cells; settings: HEK293 EBNA membranes, 0.7 nM [3H]-spiperone
Procedure: as §1, §2, §3
The binding affinity (Ki) of the compounds was determined using radioligand binding. […] The nonspecific binding was determined with equally composed reaction mixtures in the presence of 10 μM unlabelled spiperone. Per well 45 μl of Microscint 40 (Perkin Elmer, Schwerzenbach, Switzerland) was added, plates for sealed, shaken for 20 min and counted for 3 min on a Topcount Microplate Scintillation Counter (Canberra Packard SA, Zürich, Switzerland) with quenching correction.
as §4

Chain of D3 receptor (P35462 whole entry): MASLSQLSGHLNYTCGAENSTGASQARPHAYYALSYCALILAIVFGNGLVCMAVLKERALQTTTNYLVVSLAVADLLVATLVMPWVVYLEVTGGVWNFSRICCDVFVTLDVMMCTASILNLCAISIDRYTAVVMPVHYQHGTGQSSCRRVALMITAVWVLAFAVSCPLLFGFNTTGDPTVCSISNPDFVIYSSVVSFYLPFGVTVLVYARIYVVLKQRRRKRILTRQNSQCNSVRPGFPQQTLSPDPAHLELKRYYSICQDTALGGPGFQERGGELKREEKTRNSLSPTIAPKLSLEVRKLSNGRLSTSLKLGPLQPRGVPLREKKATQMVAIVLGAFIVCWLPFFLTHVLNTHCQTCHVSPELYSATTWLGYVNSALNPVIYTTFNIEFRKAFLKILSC
Chain of D2 receptor (P14416 whole entry): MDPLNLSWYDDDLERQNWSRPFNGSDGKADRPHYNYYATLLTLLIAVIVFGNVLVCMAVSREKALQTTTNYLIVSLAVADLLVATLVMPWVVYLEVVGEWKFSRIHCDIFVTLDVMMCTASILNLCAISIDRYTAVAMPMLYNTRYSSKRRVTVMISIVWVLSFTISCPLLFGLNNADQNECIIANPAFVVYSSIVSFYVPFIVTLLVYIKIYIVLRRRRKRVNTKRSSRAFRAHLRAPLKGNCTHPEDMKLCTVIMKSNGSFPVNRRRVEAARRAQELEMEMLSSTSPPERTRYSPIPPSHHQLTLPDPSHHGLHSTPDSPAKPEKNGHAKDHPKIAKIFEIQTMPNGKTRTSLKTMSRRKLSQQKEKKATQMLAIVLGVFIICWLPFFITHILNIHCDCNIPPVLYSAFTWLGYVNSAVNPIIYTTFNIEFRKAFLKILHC

Row | Compound | Ki (D3 receptor) [nM] | Ki (D2 receptor) [nM]
1 | O=S(=O)(N[C@H]1CC[C@H](CCN2CCN(c3cccc4c3OCO4)CC2)CC1)c1ccc(F)cc1 [Example 68, N-trans-{4-[2-(4-Benzo[1,3]dioxol-4-yl-piperazin-1-yl)-ethyl]-cyclohexyl}-4-fluoro-benzenesulfonamide] | 2.2 | 46.2
2 | COCC(=O)N[C@H]1CC[C@H](CCN2CCN(c3cccc4c3OCO4)CC2)CC1 [Example 9, Trans-N-{4-[2-(4-Benzo[1,3]dioxol-4-yl-piperazin-1-yl)-ethyl]-cyclohexyl}-2-methoxy-acetamide] | 4.37 | 238
3 | CCCC(=O)N[C@H]1CC[C@H](CCN2CCN(c3cccc4c3OCO4)CC2)CC1 [Example 19, Trans-N-{4-[2-(4-Benzo[1,3]dioxol-4-yl-piperazin-1-yl)-ethyl]-cyclohexyl}-butyramide] | 1.58 | 144
4 | [2H]C1([2H])Oc2cccc(N3CCN(CC[C@H]4CC[C@H](NC(=O)C(C)C)CC4)CC3)c2O1 [Example 80, N-trans-{4-[2-(4-Benzo(2,2-D2) [1,3]dioxol-4-yl-piperazin-1-yl)-ethyl]-cyclohexyl}-isobutyramide] | 2.23 | 105
5 | O=C(N[C@H]1CC[C@H](CCN2CCN(c3cccc4c3OCO4)CC2)CC1)C1COc2ccccc2C1 (stereo partly drawn) [Example 50, Chroman-3-carboxylic acid-trans-N-{4-[2-(4-benzo[1,3]dioxol-4-yl-piperazin-1-yl)-ethyl]-cyclohexyl}-amide] | 0.87 | 572
6 | O=C(N[C@H]1CC[C@H](CCN2CCN(c3cccc4c3OCO4)CC2)CC1)C1(O)CCCCC1 [Example 37, 1-Hydroxy-cyclohexanecarboxylic acid-trans-N-{4-[2-(4-benzo[1,3]dioxol-4-yl-piperazin-1-yl)-ethyl]-cyclohexyl}-amide] | 15.7 | 175
7 | Cc1cc(CC(=O)N[C@H]2CC[C@H](CCN3CCN(c4cccc5c4OCO5)CC3)CC2)on1 [Example 13, Trans-N-{4-[2-(4-Benzo[1,3]dioxol-4-yl-piperazin-1-yl)-ethyl]-cyclohexyl}-2-(3-methyl-isoxazol-5-yl)-acetamide] | 1.34 | 314
8 | O=C(N[C@H]1CC[C@H](CCN2CCN(c3cccc4c3OCO4)CC2)CC1)C1CCC1 [Example 54, Cyclobutanecarboxylic acid-trans-N-{4-[2-(4-benzo[1,3]dioxol-4-yl-piperazin-1-yl)-ethyl]-cyclohexyl}-amide] | 1.97 | 91.1
9 | O=C(Nc1ccc(Cl)cc1)N[C@H]1CC[C@H](CCN2CCN(c3cccc4c3OCO4)CC2)CC1 [Example 75, N-trans-1-{4-[2-(4-Benzo[1,3]dioxol-4-yl-piperazin-1-yl)-ethyl]-cyclohexyl}-3-(4-chloro-phenyl)-urea] | 1.04 | 158
10 | CO[C@@H]1CC[C@@H](CC(=O)N[C@H]2CC[C@H](CCN3CCN(c4cccc5c4OCO5)CC3)CC2)C1 [Example 23, Trans-N-{4-[2-(4-Benzo[1,3]dioxol-4-yl-piperazin-1-yl)-ethyl]-cyclohexyl}-2-((1R,3R)-3-methoxy-cyclopentyl)-acetamide] | 2.5 | 183
11 | O=C(N[C@H]1CC[C@H](CCN2CCN(c3cccc4c3OCO4)CC2)CC1)c1ccnc2ccccc12 [Example 47, Quinoline-4-carboxylic acid-trans-N-{4-[2-(4-benzo[1,3]dioxol-4-yl-piperazin-1-yl)-ethyl]-cyclohexyl}-amide] | 2.4 | 509
12 | COCCC(=O)N[C@H]1CC[C@H](CCN2CCN(c3cccc4c3OCO4)CC2)CC1 [Example 2, Trans-N-{4-[2-(4-Benzo[1,3]dioxol-4-yl-piperazin-1-yl)-ethyl]-cyclohexyl}-3-methoxy-propionamide] | 1.88 | 173
13 | O=S(=O)(N[C@H]1CC[C@H](CCN2CCN(c3cccc4c3OCO4)CC2)CC1)N1CCOCC1 [Example 77, Morpholine-4-sulfonic acid-trans-N-{4-[2-(4-benzo[1,3]dioxol-4-yl-piperazin-1-yl)-ethyl]-cyclohexyl}-amide] | 1.29 | 63
14 | N#CCC(=O)N[C@H]1CC[C@H](CCN2CCN(c3cccc4c3OCO4)CC2)CC1 [Example 14, Trans-N-{4-[2-(4-Benzo[1,3]dioxol-4-yl-piperazin-1-yl)-ethyl]-cyclohexyl}-2-cyano-acetamide] | 0.91 | 76
15 | CO[C@@H](C(=O)N[C@H]1CC[C@H](CCN2CCN(c3cccc4c3OCO4)CC2)CC1)C(C)C [Example 64, (R)-trans-N-{4-[2-(4-Benzo[1,3]dioxol-4-yl-piperazin-1-yl)-ethyl]-cyclohexyl}-2-methoxy-3-methyl-butyramide] | 14.7 | 89.5
16 | C[C@@H](O)C(=O)N[C@H]1CC[C@H](CCN2CCN(c3cccc4c3OCO4)CC2)CC1 [Example 42, (R)-Trans-N-{4-[2-(4-Benzo[1,3]dioxol-4-yl-piperazin-1-yl)-ethyl]-cyclohexyl}-2-hydroxy-propionamide] | 2.17 | 89.8
17 | CO[C@H](C(=O)N[C@H]1CC[C@H](CCN2CCN(c3cccc4c3OCO4)CC2)CC1)C(C)C [Example 65, (S)-trans-N-{4-[2-(4-Benzo[1,3]dioxol-4-yl-piperazin-1-yl)-ethyl]-cyclohexyl}-2-methoxy-3-methyl-butyramide] | 19.9 | 112
18 | CC(C)(O)CC(=O)N[C@H]1CC[C@H](CCN2CCN(c3cccc4c3OCO4)CC2)CC1 [Example 27, Trans-N-{4-[2-(4-Benzo[1,3]dioxol-4-yl-piperazin-1-yl)-ethyl]-cyclohexyl}-3-hydroxy-3-methyl-butyramide] | 1.56 | 76.8
19 | O=C(N[C@H]1CC[C@H](CCN2CCN(c3cccc4c3OCO4)CC2)CC1)c1ccccc1 [Example 11, Trans-N-{4-[2-(4-Benzo[1,3]dioxol-4-yl-piperazin-1-yl)-ethyl]-cyclohexyl}-benzamide] | 9.99 | 269
20 | [2H]C1([2H])Oc2cccc(N3CCN(CC[C@H]4CC[C@H](NC(=O)COC)CC4)CC3)c2O1 [Example 79, N-trans-{4-[2-(4-Benzo(2,2-D2) [1,3]dioxol-4-yl-piperazin-1-yl)-ethyl]-cyclohexyl}-2-methoxy-acetamide] | 4.98 | 146
21 | CS(=O)(=O)CC(=O)N[C@H]1CC[C@H](CCN2CCN(c3cccc4c3OCO4)CC2)CC1 [Example 55, Trans-N-{4-[2-(4-Benzo[1,3]dioxol-4-yl-piperazin-1-yl)-ethyl]-cyclohexyl}-2-methanesulfonyl-acetamide] | 1.45 | 95.4
22 | O=C(N[C@H]1CC[C@H](CCN2CCN(c3cccc4c3OCO4)CC2)CC1)N1CCc2ccccc21 [Example 71, 2,3-Dihydro-indole-1-carboxylic acid-trans-N-{4-[2-(4-benzo[1,3]dioxol-4-yl-piperazin-1-yl)-ethyl]-cyclohexyl}-amide] | 2.01 | 241
23 | O=C(C[C@H]1C[C@H](CO)C1)N[C@H]1CC[C@H](CCN2CCN(c3cccc4c3OCO4)CC2)CC1 [Example 74, N-trans-{4-[2-(4-Benzo[1,3]dioxol-4-yl-piperazin-1-yl)-ethyl]-cyclohexyl}-2-(3-hydroxymethyl-cyclobutyl)-acetamide] | 2.44 | 117
